Measured values published in patent US7009050B2, “5-Substituted pyrimidine derivatives of conformationally locked nucleoside analogues” (The United States of America as represented by the …, priority 2000, dated 2006).
In brackets after ≈: the same amount, converted by molar mass. Like-named read-outs stand apart in the source and are kept apart here.

Assays:
herpes viruses = test: antiherpes activity of methanocarbathymine conformers (test not specified); type: cell-based
TK + VZV YS strain = test: VZV plaque reduction, TK+ VZV YS strain; type: cell-based, Varicella zoster virus; conditions: read-out: Antiviral activity (Plaque reduction) EC50, TK + VZV YS strain
TK + VZV OKA strain = test: VZV plaque reduction, TK+ VZV OKA strain; type: cell-based, Varicella zoster virus; conditions: read-out: Antiviral activity (Plaque reduction) EC50, TK + VZV OKA strain
Procedure: (§1) The virus plaque reduction assay proceeds generally as follows. […] The drug concentrations utilized are usually 200 down to 0.06 μg/mL. The virus to be used is diluted in MEM containing 10% FBS to a desired concentration which will give 20–30 plaques/well. The media are then aspirated from the wells, and 0.2 mL of virus is added to each well in duplicate with 0.2 mL of media being added to drug toxicity wells. The plates are then incubated for 1 hr with shaking every 15 min. After the incubation period, an equal amount of 1% agarose is added to an equal volume of each drug dilution. […] The drug agarose mixture is applied to each well in 2 mL volume, and the plates are incubated for 3 days, after which the cells are stained with a […] of neutral red. At the end of the 4–6 h incubation period, the stain is aspirated, and plaques are counted using a stereomicroscope at 10× magnification.

TK − VZV 07/1 strain = test: VZV plaque reduction, TK- VZV 07/1 strain; type: cell-based, Varicella zoster virus; conditions: read-out: Antiviral activity (Plaque reduction) EC50, TK − VZV 07/1 strain
Procedure: as §1

HSV-2 [1] = test: cytopathogenic effect (CPE) inhibition assay, HSV-2 in HFF; conditions: HFF cells
[2] = tested on: human foreskin fibroblast (HFF) cells
TK − VZV YS/R strain = test: VZV plaque reduction, TK- VZV YS/R strain; type: cell-based, Varicella zoster virus; conditions: read-out: Antiviral activity (Plaque reduction) EC50, TK − VZV YS/R strain
Procedure: as §1

HSV-1 [3] = test: cytopathogenic effect (CPE) inhibition assay, HSV-1 in HFF; conditions: for HSV-1 (HFF) CPE inhib. EC50: HFF cells, CPE inhibition
Vaccinia [4] = conditions: HFF cells; plaque reduction
HSV-2 [5] = test: virus plaque reduction assay, HSV-2 in HFF
Cowpox [6] = conditions: HFF cells; CPE inhibition
HSV-1 [7] = test: virus plaque reduction assay, HSV-1 in HFF
Cowpox [8] = conditions: HFF cells; plaque reduction
Vaccinia [9] = conditions: HFF cells; CPE inhibition
[10] = cytotoxicity (cell morphology MCC, cell growth CC50), Table 3; conditions: for Cytotoxicity, Cell Morphology (MCC): minimum cytotoxic concentration causing microscopically detectable alteration of cell morphology; for CC50: read-out: Cytotoxicity CC50, cell growth
[11] = plaque reduction assay, more potent than acyclovir

Cc1cn([C@@]23C[C@H](O)[C@@H](CO)[C@@H]2C3)c(=O)[nH]c1=O
antiherpes activity (in words) (herpes viruses): inactive

O=c1[nH]c(=O)n([C@H]2C[C@H](O)[C@]3(CO)C[C@H]23)cc1/C=C/Br [(N)-MCBVDU (5)]
EC50 (TK + VZV YS strain): 7 nM
EC50 (TK + VZV OKA strain): 5 nM
EC50 (TK − VZV 07/1 strain): > 5000 nM
HSV-2 (HFF) CPE inhib. EC50 (HSV-2 [1]): >100 µg/mL
SI (CC50/EC50), HSV-2 CPE inhib. (HSV-2 [1]): 0
HSV-1 (HFF) CPE inhib. CC50 [2]: >100 µg/mL
HSV-2 (HFF) CPE inhib. CC50 [2]: >100 µg/mL
EC50 (TK − VZV YS/R strain): > 5000 nM
HSV-1 (HFF) CPE inhib. EC50 (HSV-1 [3]): 2.2 µg/mL

O=c1[nH]c(=O)n(C2CC(O)C3(CO)CC23)cc1Br (centres unmarked) [(N)-MCdBrU (3)]
EC50 (TK + VZV YS strain): 30 nM
SI (CC50/EC50), Vaccinia Plaque red'n (Vaccinia [4]): 38.5
Vaccinia (HFF) Plaque red'n EC50 (Vaccinia [4]): 2.6 µg/mL
HSV-2 (HFF) plaque red'n EC50 (HSV-2 [5]; HFF cells, plaque reduction): 0.12 µg/mL
SI (CC50/EC50), HSV-2 plaque red'n (HSV-2 [5]; HFF cells, plaque reduction): 833
EC50 (TK + VZV OKA strain): 890 nM
Cowpox (HFF) CPE inhib. EC50 (Cowpox [6]): 11.5 µg/mL
SI (CC50/EC50), Cowpox CPE inhib. (Cowpox [6]): 8.7
EC50 (TK − VZV 07/1 strain): 107000 nM
HSV-2 (HFF) CPE inhib. EC50 (HSV-2 [1]): 0.70 µg/mL
SI (CC50/EC50), HSV-2 CPE inhib. (HSV-2 [1]): >142
HSV-1 (HFF) plaque red'n EC50 (HSV-1 [7]; HFF cells, plaque reduction): 0.03 µg/mL
SI (CC50/EC50), HSV-1 plaque red'n (HSV-1 [7]; HFF cells, plaque reduction): 3333
HSV-1 (HFF) CPE inhib. CC50 [2]: >100 µg/mL
HSV-1 (HFF) plaque red'n CC50 [2]: >100 µg/mL
HSV-2 (HFF) CPE inhib. CC50 [2]: >100 µg/mL
HSV-2 (HFF) plaque red'n CC50 [2]: >100 µg/mL
Cowpox (HFF) CPE inhib. CC50 ([2]; HFF cells, column of Cowpox CPE inhibition): >100 µg/mL
Cowpox (HFF) Plaque red'n CC50 ([2]; HFF cells, column of Cowpox plaque reduction): >100 µg/mL
Vaccinia (HFF) CPE inhib. CC50 ([2]; HFF cells, column of Vaccinia CPE inhibition): >100 µg/mL
Vaccinia (HFF) Plaque red'n CC50 ([2]; HFF cells, column of Vaccinia plaque reduction): >100 µg/mL
Cowpox (HFF) Plaque red'n EC50 (Cowpox [8]): 3.4 µg/mL
SI (CC50/EC50), Cowpox Plaque red'n (Cowpox [8]): 29.4
SI (CC50/EC50), Vaccinia CPE inhib. (Vaccinia [9]): >156
Vaccinia (HFF) CPE inhib. EC50 (Vaccinia [9]): 0.64 µg/mL
EC50 (TK − VZV YS/R strain): 37000 nM
HSV-1 (HFF) CPE inhib. EC50 (HSV-1 [3]): 0.39 µg/mL

O=c1[nH]c(=O)n([C@H]2C[C@H](O)[C@]3(CO)C[C@H]23)cc1I [(N)-MCdIU (4)]
EC50 (TK + VZV OKA strain): 160 nM
EC50 (TK − VZV 07/1 strain): > 5000 nM
Cytotoxicity, Cell Morphology (MCC) [10]: >5 μM
CC50 [10]: > 200000 nM
HSV-2 (HFF) CPE inhib. EC50 (HSV-2 [1]): 3.3 µg/mL
SI (CC50/EC50), HSV-2 CPE inhib. (HSV-2 [1]): 30.3
HSV-1 (HFF) CPE inhib. CC50 ([2]; HFF cells, column of HSV-1 CPE inhibition): >100 µg/mL
HSV-2 (HFF) CPE inhib. CC50 ([2]; HFF cells, column of HSV-2 CPE inhibition): >100 µg/mL
EC50 (TK − VZV YS/R strain): 3000 nM
HSV-1 (HFF) CPE inhib. EC50 (HSV-1 [3]): >100 µg/mL

Cc1cn([C@H]2C[C@H](O)[C@]3(CO)C[C@H]23)c(=O)[nH]c1=O [(North)-methanocarbathymine, reference compound]
potency relative to acyclovir against HSV-2 (HSV-2 [5]; [11]): 30 times
potency relative to acyclovir against HSV-1 (HSV-1 [7]; [11]): 30 times

Nc1nc2c(ncn2COCCO)c(=O)[nH]1 [ACV, acyclovir, reference compound]
EC50 (HSV-1 [3]; Human alphaherpesvirus 1, HFF, read-out: HSV-1 (HFF) CPE inhib. EC50): 0.5 µg/mL (≈ 2.22 µM)

O=c1[nH]c(=O)n([C@H]2C[C@H](O)[C@@H](CO)O2)cc1/C=C/Br [BVDU, reference compound]
EC50 (TK + VZV YS strain): 8 nM
EC50 (TK + VZV OKA strain): 5 nM
EC50 (TK − VZV 07/1 strain): > 150000 nM
Cytotoxicity, Cell Morphology (MCC) [10]: >150 μM
CC50 [10]: > 400000 nM
EC50 (TK − VZV YS/R strain): > 150000 nM
